Measured values as given in patent US12410185B2, “Compounds targeting mutant calreticulin” (MYELOPRO DIAGNOSTICS AND RESEARCH GmbH, priority 2018, dated 2025).

How the values were obtained:
mutant calreticulin = test: Western blot analysis of hematoxylin-resistant clones; type: cell-based, mouse; conditions: 24 h treatment
Method: FIG. 22: Western blot analysis of hematoxylin resistant clones. All cells were treated for 24 h with hematoxylin before collection.
Ba/F3-MPL CALR del79/WT and CALR del37/del37 cell lines were cultured with 20 uM of hematoxylin with or without 5% TPO continuously for 4 weeks. The cells were passaged every 3 days and seeded at 0.5 million per well in 6-well plates with addition of fresh hematoxylin and cytokine.
2 million Ba/F3-MPL CALR WT or mutant cells were treated with hematoxylin or the equivalent volume of DMSO in a total volume of 15 ml of RPMI media in T75 flasks (Thermal Fisher Scientific). Cells were collected and washed with PBS before being lysed in whole cell lysis buffer containing 20 mM HEPES, 20% glycerol, 50 mM KCl, 400 mM NaCl, 1 mM EDTA, 1 mM DTT, 5 mM Na orthovanadate, 0.5% NP40, 0.1% Tween 20, supplemented with cOmplete™, Mini, EDTA-free Protease Inhibitor Cocktail (Sigma) and PhosSTOP™ (Sigma). Samples were rotated at 4° C. for 20 min prior to centrifugation at […] for 20 min. The soluble fraction of the sample was collected. Protein concentration was quantified by the Bio-Rad Protein Assay (Bio-Rad) according to the manufacturer's instructions and measured by a SpectraMax Microplate Reader (Molecular Devices). […] Mutant calreticulin was detected by a polyclonal rabbit antibody against the mutant specific C-terminal peptide (Myelopro). […]

[1] = system: CALR KO Ba/F3-MPL cell lines; test: hematoxylin sensitivity of CALR knockout cell lines; type: cell-based, mouse; conditions: CALR KO vs CALR WT clones
Method: In order to further confirm the selective cytotoxicity of hematoxylin in CALR mutant cells, two-color competition assays were performed in both Ba/F3 and UT-7-TPO cells to assess the long-term efficacy of the compound (FIG. 9). […] The differential killing effect of hematoxylin could also be reproduced in the UT-7-TPO cell line. […] This reading frame encounters a stop codon shortly after the mutation and causes a truncation at the CALR C-terminus (FIG. 12). […] Moreover, CALR KO Ba/F3-MPL cell lines were tested for hematoxylin sensitivity.

wild-type calreticulin = biological target: T1, wild-type calreticulin (Mus musculus, UniProt P14211); test: Western blot analysis of Ba/F3-MPL cell lines; type: cell-based; conditions: 20 uM, 24 hours
T1 construct: endogenous in cells; host or cells: Ba/F3-MPL CALR WT and CALR WT/del79 cell lines
Method: (§1) 2 million Ba/F3-MPL CALR WT or mutant cells were treated with hematoxylin or the equivalent volume of DMSO in a total volume of 15 ml of RPMI media in T75 flasks (Thermal Fisher Scientific). Cells were collected and washed with PBS before being lysed in whole cell lysis buffer containing 20 mM HEPES, 20% glycerol, 50 mM KCl, 400 mM NaCl, 1 mM EDTA, 1 mM DTT, 5 mM Na orthovanadate, 0.5% NP40, 0.1% Tween 20, supplemented with cOmplete™, Mini, EDTA-free Protease Inhibitor Cocktail (Sigma) and PhosSTOP™ (Sigma). Samples were rotated at 4° C. for 20 min prior to centrifugation at […] for 20 min. The soluble fraction of the sample was collected. Protein concentration was quantified by the Bio-Rad Protein Assay (Bio-Rad) according to the manufacturer's instructions and measured by a SpectraMax Microplate Reader (Molecular Devices). Equal amounts of protein were loaded for 8% or 10% SDS-polyacrylamide gel electrophoresis prior to transfer to Amersham™ Protran® nitrocellulose membranes at 35V, 4° C. overnight. Membranes were then blocked by 5% bovine serum albumin fraction V (Sigma) or milk. Mutant calreticulin was detected by a polyclonal rabbit antibody against the mutant specific C-terminal peptide (Myelopro). […]

CALR wild-type cell line = test: 72 h dose response of hematoxylin, analogues and control compounds; type: cell-based; conditions: 72 h assay; read-out: IC50 in wild-type cell line
Method: Ba/F3 and UT-7-TPO were plated 5.000 cells/well and 16.000 cells/well into 96-well plates with the desirable concentrations of compounds or cytokines added to a total volume of 100 ul. 72 hours later, the CellTiter-Glo luminescent Cell Viability Assay (Promega) was used to determine the cell viability. The luminescent signal was detected by a VICTOR Multilabel Plate Reader (PerkinElmer). Dose response data was analyzed by Graphpad Prism 7.0.
To further explore the chemical space of the compound, a few hematoxylin analogues were also tested (FIGS. 15 to 17). […] The compounds Protosappanin B (A-4) and RJ002 (B-2) were also tested. […] As a comparison, the clinically used chemotherapeutic drugs hydroxyurea and ruxolitinib were also tested in the cell models.

[2] = system: Ba/F3-MPL CALR del52/WT cells mixed with Ba/F3-MPL CALR WT cells; test: two-color competition assay, 12 days; type: cell-based, mouse; conditions: in the presence of TPO, compared to DMSO control
Method: (§2) FIG. 10: Competition assay of hematoxylin treatment in Ba/F3-MPL cells. Ba/F3-MPL CALR WT (GFP negative) and Ba/F3-MPL CALR del52/WT (GFP positive) cells were mixed and underwent hematoxylin treatment for 12 days. Drug and cytokine were refreshed every 3 days. Percentage of GFP positive cells were recorded by FACs.
(§3) To determine long-term viability, a two-color competition assay was used. Cell lines were transduced with pMSCV-IRES-GFP/mCherry construct, and the fluorescence-positive cells were sorted by a SH800Z Cell Sorter (Sony). GFP/mCherry-positive cell lines were mixed with their non-fluorescent control cells in a 1:1 ratio and underwent compound treatment for 3-12 days. Compounds and cytokines were refreshed every 3 days. Cell samples were analyzed at each time point by a BD LSRFortessa™ cell analyzer (BD Biosciences).

mutant CALR protein = test: binding assay (data not shown)
[3] = system: UT-7-TPO CALR del58/WT cells mixed with UT-7-TPO CALR WT cells; test: two-color competition assay, 12 days; type: cell-based; conditions: in the presence of TPO
Method: as §2, with “11:” for “10:”, “UT-7-TPO” for “Ba/F3-MPL”, “(mCherry” for “(GFP”, “del58/WT (mCherry” for “del52/WT (GFP”, “mCherry” for “GFP”
as §3

PARP cleavage = test: Western blot time-course, Ba/F3-MPL CALR WT/del79; type: cell-based; conditions: 8-hour time point
Method: as §1

STAT5 phosphorylation = test: Western blot time-course, Ba/F3-MPL CALR WT/del79; type: cell-based; conditions: 8-hour time point
Method: as §1

T1 sequence (P14211 18-416): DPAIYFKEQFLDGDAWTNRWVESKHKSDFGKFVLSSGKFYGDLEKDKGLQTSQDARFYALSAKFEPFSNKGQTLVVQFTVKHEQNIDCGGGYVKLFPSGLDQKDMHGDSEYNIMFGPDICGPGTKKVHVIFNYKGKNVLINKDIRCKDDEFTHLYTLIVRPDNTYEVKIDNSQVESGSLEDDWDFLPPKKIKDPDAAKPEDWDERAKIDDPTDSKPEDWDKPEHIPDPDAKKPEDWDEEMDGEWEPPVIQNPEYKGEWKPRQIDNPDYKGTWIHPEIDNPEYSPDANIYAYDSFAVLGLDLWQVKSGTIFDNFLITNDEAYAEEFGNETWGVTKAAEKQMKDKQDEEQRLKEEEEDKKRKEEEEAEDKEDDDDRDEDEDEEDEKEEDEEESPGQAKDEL

With `Oc1cc2c(cc1O)[C@@H]1c3ccc(O)c(O)c3OC[C@]1(O)C2` [hematoxylin, Hematoxylin] the “compound-induced down-regulation of mutant calreticulin in resistant cell lines” value (mutant calreticulin) was “resistance towards the compound-induced down-regulation”, the “hypersensitivity towards the treatment” value [1] was “did not show hypersensitivity” and the “wild-type calreticulin protein level” value (wild-type calreticulin; CALR WT cell line) was “not affected”. The “wild-type calreticulin protein level” value (wild-type calreticulin; CALR heterozygous mutant cell line) was “up-regulation”, the IC50 (CALR wild-type cell line) was 11.1 µM and the “depletion of CALR mutant cells in co-cultivation with CALR WT cells” value [2] was “almost completely depleted”. The “binding to mutant CALR protein” value (mutant CALR protein) was “bound”, the “outgrowth of mutant cells from the cell population” value [3] was “inhibited the outgrowth of the mutant cells” and the “PARP cleavage (apoptotic marker)” value (PARP cleavage) was “upregulation”. The STAT5 phosphorylation (STAT5 phosphorylation) was “decrease”.
